Results: ChEMBL document CHEMBL1136714 (J Med Chem, 2003)
pIC50: −log10 of the molar value.

What was measured:
[1] = biological target: Norepinephrine transporter (Rattus norvegicus, UniProt Q9WTR4); experiment: Binding affinity towards norepinephrine transporter in rat striatum using [3H]nisoxetine as radioligand; type: tissue-based
[2] = biological target: Sodium-dependent serotonin transporter (Rattus norvegicus, UniProt P31652); experiment: Binding affinity towards serotonin transporter in rat striatum using [3H]citalopram as radioligand; type: tissue-based
Sequence of Sodium-dependent serotonin transporter (P31652 whole entry): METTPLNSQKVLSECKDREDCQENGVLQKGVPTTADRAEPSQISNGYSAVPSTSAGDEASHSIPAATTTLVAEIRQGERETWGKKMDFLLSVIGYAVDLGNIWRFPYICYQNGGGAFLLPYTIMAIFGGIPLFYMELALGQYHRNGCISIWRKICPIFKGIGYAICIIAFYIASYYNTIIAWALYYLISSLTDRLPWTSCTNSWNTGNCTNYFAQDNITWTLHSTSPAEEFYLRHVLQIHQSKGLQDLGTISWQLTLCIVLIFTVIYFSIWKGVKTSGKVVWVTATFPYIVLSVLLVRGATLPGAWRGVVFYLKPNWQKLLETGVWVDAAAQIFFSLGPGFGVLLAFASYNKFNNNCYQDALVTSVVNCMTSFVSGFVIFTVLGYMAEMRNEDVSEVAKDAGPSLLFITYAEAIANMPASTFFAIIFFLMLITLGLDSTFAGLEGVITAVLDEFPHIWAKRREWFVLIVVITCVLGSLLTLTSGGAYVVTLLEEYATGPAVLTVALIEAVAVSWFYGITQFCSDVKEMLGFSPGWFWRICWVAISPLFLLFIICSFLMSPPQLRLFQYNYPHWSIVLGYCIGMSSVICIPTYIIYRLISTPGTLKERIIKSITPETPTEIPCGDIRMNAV

[3] = biological target: T1, Sodium-dependent dopamine transporter (Rattus norvegicus, UniProt P23977); experiment: Binding affinity towards dopamine transporter in rat striatum using [3H]WIN-35 428 as radioligand; type: tissue-based
T1 sequence (P23977 whole entry): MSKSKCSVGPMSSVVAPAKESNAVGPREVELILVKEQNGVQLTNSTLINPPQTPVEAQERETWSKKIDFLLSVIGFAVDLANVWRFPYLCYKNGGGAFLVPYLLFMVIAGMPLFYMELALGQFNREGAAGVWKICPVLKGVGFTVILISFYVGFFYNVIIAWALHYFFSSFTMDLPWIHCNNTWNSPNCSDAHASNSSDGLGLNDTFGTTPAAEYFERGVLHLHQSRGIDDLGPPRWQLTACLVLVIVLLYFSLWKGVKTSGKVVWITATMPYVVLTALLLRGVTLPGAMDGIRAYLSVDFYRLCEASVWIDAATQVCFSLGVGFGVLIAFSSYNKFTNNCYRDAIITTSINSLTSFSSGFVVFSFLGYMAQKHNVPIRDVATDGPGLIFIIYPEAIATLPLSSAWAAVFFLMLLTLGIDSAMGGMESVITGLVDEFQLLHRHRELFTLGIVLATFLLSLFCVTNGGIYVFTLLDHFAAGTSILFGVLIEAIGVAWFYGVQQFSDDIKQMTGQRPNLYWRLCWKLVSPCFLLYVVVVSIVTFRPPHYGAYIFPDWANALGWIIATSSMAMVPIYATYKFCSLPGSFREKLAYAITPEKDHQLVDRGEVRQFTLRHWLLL

[4] = biological target: T1, Sodium-dependent dopamine transporter; experiment: Inhibition of uptake from dopamine transporter in rat striatum using [3H]DA as radioligand; type: functional, tissue-based

Sequence of Norepinephrine transporter (Q9WTR4 whole entry): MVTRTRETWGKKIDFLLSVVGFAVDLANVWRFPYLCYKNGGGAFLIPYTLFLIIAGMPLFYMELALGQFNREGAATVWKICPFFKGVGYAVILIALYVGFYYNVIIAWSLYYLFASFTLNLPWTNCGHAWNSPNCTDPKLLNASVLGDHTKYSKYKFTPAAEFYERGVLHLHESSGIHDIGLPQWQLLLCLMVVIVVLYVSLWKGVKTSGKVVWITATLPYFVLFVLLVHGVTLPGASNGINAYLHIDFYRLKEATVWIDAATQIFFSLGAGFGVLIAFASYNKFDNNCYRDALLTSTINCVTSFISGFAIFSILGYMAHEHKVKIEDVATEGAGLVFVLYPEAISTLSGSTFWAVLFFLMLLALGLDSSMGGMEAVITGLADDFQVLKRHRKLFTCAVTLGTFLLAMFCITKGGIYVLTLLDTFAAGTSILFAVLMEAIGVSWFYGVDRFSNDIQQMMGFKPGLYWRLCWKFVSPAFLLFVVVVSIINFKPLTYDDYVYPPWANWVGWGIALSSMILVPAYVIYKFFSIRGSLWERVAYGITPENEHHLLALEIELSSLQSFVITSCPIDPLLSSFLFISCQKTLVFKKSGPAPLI

| Compound | pIC50 [1] | pIC50 [2] | pIC50 [3] | pIC50 [4] |
| --- | --- | --- | --- | --- |
| CCC(=O)O[C@@H]1CN(Cc2ccc(F)cc2)CC[C@H]1CCOC(c1ccccc1)c1ccccc1 | 4.45 | 3.75 | 6.23 | – |
| Fc1ccc(CN2CC=C(CCOC(c3ccccc3)c3ccccc3)CC2)cc1 | – | 5.95 | 7.42 | – |
| Fc1ccc(CN2CCC(CCOC(c3ccccc3)c3ccccc3)CC2)cc1 | – | – | – | 8.61 |
| O=C1CN(Cc2ccc(F)cc2)CC[C@H]1CCOC(c1ccccc1)c1ccccc1 | 5.20 | 5.11 | 7.00 | – |
| O[C@@H]1CN(Cc2ccc(F)cc2)CC[C@H]1CCOC(c1ccccc1)c1ccccc1 | 5.81 | 5.74 | 7.25 | 7.42 |
| OC1CN(Cc2ccc(F)cc2)CC[C@@H]1CCOC(c1ccccc1)c1ccccc1 (stereo not given in full) | 5.73 | 5.44 | 9.34 | 8.39 |
| O[C@H]1CN(Cc2ccc(F)cc2)CC[C@H]1CCOC(c1ccccc1)c1ccccc1 (racemic) | 5.67 | 5.48 | 7.95 | 8.00 |
| O[C@@H]1CN(Cc2ccc(F)cc2)CC[C@H]1CCOC(c1ccccc1)c1ccccc1 (racemic) | 5.99 | 5.63 | 8.38 | 8.49 |
